Results published in US7884067B2, “Peptides derived from cadherin and methods of use thereof” (Mount Sinai School of Medicine of New York University, priority 2001, dated 2011).

B1: N-Cad/CTF2: chicken cytoplasmic domain of N-cadherin (N-Cad/CTF2) inserted into vector pECE, expressed in L cells (protein)
chain: KRRDKERQAKQLLIDPEDDVRDNILKYDEEGGGEEDQDYDLSQLQQPDTVEPDAIKPVGIRRLDERPIHAEPQYPVRSAAPHPGDIGDFINEGLKAADNDPTAPPYDSLLVFDYEGSGSTAGSLSSLNSSSSGGEQDYDYLNDWGPRFKKLADMYGGGDD

Tests used:
E-cadherin = E-cadherin processing in E-cadherin-transfected PS1+/+ fibroblasts (Western blot, C36); type: cell-based, mouse; conditions: L-685,458 0.5 μM, 6 hours, compared to non-treated controls
Protocol: Cell Cultures and transfections. Cells were grown in Dulbecco's Modified Eagle Medium (DMEM) plus 10% fetal bovine serum, penicillin and streptomycin in 5% CO2 at 37° C. Fibroblast cell lines derived either from wild-type (WT) (PS1+/+) or PS1 knock-out (PS1−/−) mice were stably transfected with human E-cadherin as described by Baki et al., (2001). A431 cells were from American Type Culture Collection. Stable transfectants of PS1 cDNA in HEK293 cells were prepared as described by Georgakopoulos et al., (1999). A431D cells stably transfected with wild-type or GGG759-761AAA mutant E-cadherin were provided by Dr. A. B. Reynolds.
Immunoprecipitations (IPs), immunoblotting, immunofluorescence and confocal microscopy. For WB analysis of cell extracts, cells were washed with PBS and then solubilized in RIPA buffer. For IPs cells were solubilized in Hepes buffer (25 mM Hepes [pH 7.4], 150 mM NaCl, 1× Complete protease inhibitor cocktail, Roche) containing 1% digitonin (IPs with I-R222 and PI-R222 antibodies) or 1% Triton X-100 (IPs with β-catenin and desmoglein antibodies). Following centrifugation at 17,000×g for 10 min, supernatants (1 mg protein) were pre-cleared with protein A- or protein G-agarose (Pierce) for 2 hours. […] IPs were washed with Hepes buffer containing either 1% digitonin or 1% Triton X-100 and analyzed by SDS-PAGE. […]

CBP = molecular target: T1, CBP (Mus musculus, UniProt P45481); experiment: Immunofluorescence staining of pN-Cad/CTF2-transfected L cells; type: cell-based; conditions: compared to non-transfected controls
T1 construct: a process that relies on endogenous CBP and CREB; endogenous in cells; host or cells: L cells transfected with vector or pN-Cad/CTF2
Protocol: Immunoprecipitations (IPs), immunoblotting and immunofluorescence. IPs were performed as described by Marambaud et al. (2002) EMBO J. 21: 1948-1956 in 4° C. HEPES buffer (25 mM HEPES, pH 7.4, 150 mM NaCl, 1× Complete protease inhibitor cocktail, Roche) containing 0.5% Nonidet P40 (NP40). For western blot (WB) analysis, cells were solubilized in 4° C. RIPA buffer (50 mM Tris-HCl, pH 8, 150 mM NaCl, 0.1% SDS, 1% NP-40, 0.5% sodium deoxycholate, 1× Complete protease inhibitor cocktail) as described by Marambaud et al. (2002). Immunofluorescence was performed as described by Georgakopoulos et al. (1999) with the following modifications: to visualize nuclei, cells were treated for 5 minutes with 4′,6-diamidino-2-phenylndole (DAPI, 1:5000; Sigma). Fluorescence microscopy and digital image acquisition were carried out using an Axioskop2 microscope (Zeizz).
To determine how N-Cad/CTF2 affects CREB-mediated transcription, the following experiments were performed. L cells transfected either with vector (vector) or pN-Cad/CTF2 (N-Cad/CTF2) plasmids were fractionated into nuclear and cytosolic fractions, and probed on WBs with anti-CBP (FIG. 11A, panel a), anti-N-cadherin (FIG. 11A, panel b), anti-β-tubulin (FIG. 11A, panel c) or anti-phosphorylated CREB (P-CREB; FIG. 11A, panel d) antibodies. […] L cells transiently transfected with pN-Cad/CTF2 were analyzed by immunofluorescence staining. […]

T1 sequence (P45481 whole entry): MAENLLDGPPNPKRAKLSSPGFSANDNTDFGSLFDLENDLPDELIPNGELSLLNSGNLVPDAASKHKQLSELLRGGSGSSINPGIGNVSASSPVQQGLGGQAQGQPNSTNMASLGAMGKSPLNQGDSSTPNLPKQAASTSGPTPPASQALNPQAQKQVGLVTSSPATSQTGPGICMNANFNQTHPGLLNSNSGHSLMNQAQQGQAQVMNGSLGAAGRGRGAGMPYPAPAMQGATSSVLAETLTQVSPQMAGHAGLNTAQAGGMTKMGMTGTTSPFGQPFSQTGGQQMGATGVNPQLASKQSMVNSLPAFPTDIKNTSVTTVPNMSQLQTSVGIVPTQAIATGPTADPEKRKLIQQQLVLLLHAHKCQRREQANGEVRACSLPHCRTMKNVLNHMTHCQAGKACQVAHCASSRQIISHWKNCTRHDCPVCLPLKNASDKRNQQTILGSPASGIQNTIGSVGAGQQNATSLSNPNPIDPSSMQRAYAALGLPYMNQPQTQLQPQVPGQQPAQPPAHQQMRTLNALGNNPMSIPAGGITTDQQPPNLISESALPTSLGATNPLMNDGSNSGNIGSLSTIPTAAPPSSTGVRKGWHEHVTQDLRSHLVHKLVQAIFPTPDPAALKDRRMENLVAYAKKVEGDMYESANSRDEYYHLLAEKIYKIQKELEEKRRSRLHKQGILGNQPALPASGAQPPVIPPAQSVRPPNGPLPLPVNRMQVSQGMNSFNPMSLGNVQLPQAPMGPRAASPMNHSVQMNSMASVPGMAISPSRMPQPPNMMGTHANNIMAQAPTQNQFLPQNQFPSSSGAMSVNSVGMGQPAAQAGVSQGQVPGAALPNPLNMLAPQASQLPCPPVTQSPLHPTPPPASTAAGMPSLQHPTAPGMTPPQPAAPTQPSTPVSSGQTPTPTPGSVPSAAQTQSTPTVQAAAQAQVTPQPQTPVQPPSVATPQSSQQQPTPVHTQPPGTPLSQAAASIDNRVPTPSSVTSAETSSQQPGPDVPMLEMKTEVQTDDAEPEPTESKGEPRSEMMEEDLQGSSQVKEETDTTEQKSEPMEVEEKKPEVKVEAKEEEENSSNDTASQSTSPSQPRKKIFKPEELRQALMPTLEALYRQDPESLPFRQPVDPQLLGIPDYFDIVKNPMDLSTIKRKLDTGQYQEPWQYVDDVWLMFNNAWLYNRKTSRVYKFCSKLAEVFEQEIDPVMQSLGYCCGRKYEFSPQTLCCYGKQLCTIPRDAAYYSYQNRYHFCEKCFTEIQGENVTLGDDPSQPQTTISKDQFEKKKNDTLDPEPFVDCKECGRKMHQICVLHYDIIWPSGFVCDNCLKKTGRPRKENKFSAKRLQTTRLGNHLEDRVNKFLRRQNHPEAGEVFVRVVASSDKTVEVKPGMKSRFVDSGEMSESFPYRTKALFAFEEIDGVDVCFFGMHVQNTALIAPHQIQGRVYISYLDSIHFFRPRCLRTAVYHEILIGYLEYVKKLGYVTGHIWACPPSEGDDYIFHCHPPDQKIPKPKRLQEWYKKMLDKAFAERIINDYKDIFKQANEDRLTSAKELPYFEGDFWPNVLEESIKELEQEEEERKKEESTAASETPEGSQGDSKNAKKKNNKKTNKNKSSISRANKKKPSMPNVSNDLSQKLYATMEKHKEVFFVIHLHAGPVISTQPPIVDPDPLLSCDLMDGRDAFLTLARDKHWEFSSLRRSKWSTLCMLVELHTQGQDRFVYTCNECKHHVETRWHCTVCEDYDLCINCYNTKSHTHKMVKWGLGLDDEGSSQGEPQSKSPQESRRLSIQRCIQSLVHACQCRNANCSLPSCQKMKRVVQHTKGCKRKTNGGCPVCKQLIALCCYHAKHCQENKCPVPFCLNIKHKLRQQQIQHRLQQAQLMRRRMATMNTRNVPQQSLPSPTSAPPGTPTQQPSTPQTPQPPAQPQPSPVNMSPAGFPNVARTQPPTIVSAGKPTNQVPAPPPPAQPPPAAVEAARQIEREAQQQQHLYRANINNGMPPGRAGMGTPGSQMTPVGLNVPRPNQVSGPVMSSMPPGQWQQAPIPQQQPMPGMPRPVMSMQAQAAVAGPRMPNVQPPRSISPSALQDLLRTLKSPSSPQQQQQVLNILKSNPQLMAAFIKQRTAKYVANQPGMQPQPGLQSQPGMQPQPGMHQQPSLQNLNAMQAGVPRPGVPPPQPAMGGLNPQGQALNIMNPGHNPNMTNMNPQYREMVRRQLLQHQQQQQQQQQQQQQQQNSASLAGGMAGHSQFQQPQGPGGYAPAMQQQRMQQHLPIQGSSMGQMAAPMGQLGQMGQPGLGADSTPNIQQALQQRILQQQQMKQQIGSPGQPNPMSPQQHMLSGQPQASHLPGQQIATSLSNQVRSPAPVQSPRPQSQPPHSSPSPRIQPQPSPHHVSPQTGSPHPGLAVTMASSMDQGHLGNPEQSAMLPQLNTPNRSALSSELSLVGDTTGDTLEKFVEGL

Molecule	cellular E-Cad/CTF1 (E-cadherin)	cytoplasmic staining for N-Cad/CTF2 and CBP (CBP)
CC(C)C[C@H](NC(=O)[C@H](Cc1ccccc1)C[C@@H](O)[C@H](Cc1ccccc1)NC(=O)OC(C)(C)C)C(=O)N[C@@H](Cc1ccccc1)C(N)=O [L-685,458]	increased cellular E-Cad/CTF1	
B1		clear cytoplasmic staining for both N-Cad/CTF2 and CBP
